# According to patent US8722580B2, “Agent for inhibiting cytokinin signaling” (Sumitomo Chemical Company, Limited, priority 2006, dated 2014):
# How the values were obtained:
# [1] = test system: transformed cell TM182-p415CYC1; test: Control growth test with transformed yeast cell TM182-p415CYC1 (toxicity to yeast); type: cell-based; conditions: trans-zeatin 0.6 ppm; chemical substance 2 ppm; 30° C., 24 hours; turbidity OD 600
# Outline: (§1)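 Relative growth % is derived from blank-corrected OD600 against DMSO wells after 24 h at 30° C, with inhibition given as 100 minus that value. Cells were set to OD600=0.1 with 0.6 ppm trans-zeatin and 2 ppm test substance: CRE1 strain in DOLU+Glu, p415CYC1 toxicity control in DOLU+Gal.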
# [2] = test system: rice; test: Root growth-promoting activity using rice, soil drenching (Example 14); type: in vivo, Oriza sativa japonica Nipponbare; conditions: soil drenched with 10 ppm solution, 500 μl per well
# Method: With respect to the chemical substance Ic3-3, a root growth promoting activity was measured using rice (Oriza sativa japonica Nipponbare).
# First, an acetone solution containing a predetermined concentration of the chemical substance was prepared and then 100-fold diluted with distilled water to 10 ppm (containing 1% acetone) to obtain a chemical substance solution. Seeds were immersed in water for 2 days to stimulate germination. The seeds were sowed in a 288-well plug tray (3 seeds per well), and then soil was drenched with the above chemical substance solution in an amount of 500 μl per well. After covering with soil, the plug tray was put in a plastic bag and then placed in an air-conditioned room (dark place at 30° C.) for 3 days. After removing the plastic bag from the plug tray, the plug tray was placed under light conditions of light/dark=16 h/8 h for 4 days while the bottom was irrigated at all times. Thus, rice seeds were cultivated to obtain grown rice. The resulting rice roots were washed and the total root length was analyzed using a root length measurement image analyzer WinRHIZO (manufactured by Regent Instruments).
# [3] = test system: Arabidopsis thaliana; test: Root growth-promoting activity test (Example 9); type: in vivo; conditions: test final concentration 5 ppm (concentration with highest root growth rate); main root length vs control section, 22° C., 10 days
# Outline: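 Compounds at 0.001–10 ppm final (added in DMSO) were mixed into Enshi medium, and Arabidopsis thaliana seeds were cultured in it for 10 days at 22° C under light. Root growth rate (%) is the treated mean main-root length divided by the control mean, from eight repeats.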
# [4] = test system: rice; test: Rice stand establishment-promoting activity by seed treatment, direct seeding on flooded field (Example 20); type: in vivo, Oryza sativa japonica Nipponbare; conditions: for Stand establishment rate (%) on day 23 after sowing: Blank slurry 76.7
# Method: (§2) Seeds of rice (Oryza sativa japonica Nipponbare) were treated with the chemical substance Ic3-1 (which inhibits intracellular signaling from a plant-derived cytokinin receptor of a cell) selected in Example 7, and were grown under direct seeding conditions. Then, a stand establishment rate was examined, and thus a rice stand establishment-promoting activity of the chemical substance was evaluated.
# (§3) First, a Blank slurry solution containing 5% (v/v) Color Coat Red (manufactured by BECKER UNDERWOOD), 5% (v/v) CF-Clear (manufactured by BECKER UNDERWOOD) and 0.42% (v/v) Maxim-XL (manufactured by Syngenta) was prepared. In 1.3 ml of the Blank slurry solution, 6.25 mg, 12.5 mg, 25 mg or 50 mg of the chemical substance Ic3-3 was dissolved. Seeds were treated with the solution in an amount of 1.3 ml per 50 g of seeds (each corresponding to 0.125 mg, 0.25 mg, 0.5 mg and 1 mg/g seed) using a Hege11 seed treating device (manufactured by Hans-Ulrich Hege).
# Then, a concrete pot (50 cm×50 cm) placed outdoors was flooded at a flooding depth of 5 cm, and 50 seeds per pot were sown. On day 23 after sowing, the number of seedlings whose leaf apex appeared on the water surface was examined. […] [Stand establishment rate (%)]=[Number of seedlings whose leaf apex appears on the water surface]/[Number of sown seeds]×100
# [5] = test system: rice; test: Rice tillering-promoting activity by seed treatment, direct seeding on dry field (Example 21); type: in vivo, Oryza sativa japonica Nipponbare; conditions: seed treatment 0.25 mg/g seed; day 30 after sowing
# Method: as §2, with “on dry field-conditions.” for “conditions.”, “the number of tillers” for “a stand establishment rate”, “tillering-promoting” for “rice stand establishment-promoting”
# as §3, with “solution,” for “solution, 6.25 mg,”, “12.5” for “12.5 mg, 25 mg or 50”, “(corresponding” for “(each corresponding”, “to” for “to 0.125 mg,”, “0.25” for “0.25 mg, 0.5 mg and 1”
# The, 20 seeds per pot of the treated seeds were sown in a 1/5000a Wagner pot at a depth of 1 cm and then cultured in a greenhouse. On day 10 after sowing, water was charged at a flooding depth of 5 cm and culture was continued. On day 30 after sowing, the number of tillers was examined.
# [6] = target: T1, cytokinin receptor CRE1 (Arabidopsis thaliana, UniProt Q9C5U0, S567G/T1018A); test: Inhibition of intracellular signaling from plant-derived cytokinin receptor, growth of transformed yeast cell TM182-CRE1; type: cell-based; conditions: trans-zeatin 0.6 ppm, chemical substance 2 ppm
# T1 construct: expressed in transfected cells; host or cells: Saccharomyces cerevisiae TM182 (sln1Δ) transformed with p415CYC-CRE1
# T1 sequence (Q9C5U0 24-1080 S567G/T1018A): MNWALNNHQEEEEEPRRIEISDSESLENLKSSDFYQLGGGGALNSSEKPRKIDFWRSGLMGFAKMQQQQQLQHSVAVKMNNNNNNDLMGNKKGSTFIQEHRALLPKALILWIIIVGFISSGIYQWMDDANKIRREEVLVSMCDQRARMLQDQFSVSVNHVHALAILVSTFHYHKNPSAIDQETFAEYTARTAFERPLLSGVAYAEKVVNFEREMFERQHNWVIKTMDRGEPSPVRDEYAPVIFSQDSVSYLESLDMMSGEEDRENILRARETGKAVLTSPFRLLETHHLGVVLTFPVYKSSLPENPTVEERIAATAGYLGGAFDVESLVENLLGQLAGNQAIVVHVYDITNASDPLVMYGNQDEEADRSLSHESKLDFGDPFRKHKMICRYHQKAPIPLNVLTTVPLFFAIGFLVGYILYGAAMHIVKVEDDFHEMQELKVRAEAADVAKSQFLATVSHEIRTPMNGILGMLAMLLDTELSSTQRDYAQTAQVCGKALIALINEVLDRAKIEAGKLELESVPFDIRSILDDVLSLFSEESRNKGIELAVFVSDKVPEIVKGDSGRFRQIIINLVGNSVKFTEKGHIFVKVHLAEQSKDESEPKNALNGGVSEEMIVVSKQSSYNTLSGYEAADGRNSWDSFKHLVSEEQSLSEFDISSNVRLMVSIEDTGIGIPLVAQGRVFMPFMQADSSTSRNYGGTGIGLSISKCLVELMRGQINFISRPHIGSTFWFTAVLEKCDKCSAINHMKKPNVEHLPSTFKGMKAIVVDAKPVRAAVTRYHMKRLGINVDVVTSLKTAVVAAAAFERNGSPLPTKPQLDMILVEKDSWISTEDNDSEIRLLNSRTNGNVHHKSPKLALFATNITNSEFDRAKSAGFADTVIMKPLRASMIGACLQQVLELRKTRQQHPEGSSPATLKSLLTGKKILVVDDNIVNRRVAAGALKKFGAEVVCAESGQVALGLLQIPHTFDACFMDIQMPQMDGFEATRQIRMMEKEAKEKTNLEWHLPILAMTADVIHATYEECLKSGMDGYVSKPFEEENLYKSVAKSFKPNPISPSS
# Outline: as §1
smiles,measurement,setting,value
OCCCNc1nc(-c2ccccc2)c2cc(Cl)ccc2n1 [Ic3-3],"Relative growth rate (%) in test section of test substance to control section, Transformed cell TM182-p415CYC1",[1],108.6%
same,root growth compared with the control section (UTC),[2],root growth was remarkably promoted
same,total root length (image analyzer WinRHIZO),[2],an increase of the total root length
same,Root growth-promoting activity (root growth rate),[3],163.4%
same,Stand establishment rate (%) on day 23 after sowing,[4]; seed treatment 0.125 mg/g seed,87.3%
same,Stand establishment rate (%) on day 23 after sowing,[4]; seed treatment 0.25 mg/g seed,82.7%
same,Stand establishment rate (%) on day 23 after sowing,[4]; seed treatment 0.5 mg/g seed,79.3%
same,Stand establishment rate (%) on day 23 after sowing,[4]; seed treatment 1 mg/g seed,84.0%
same,stand establishment rate compared with the Blank slurry-treated section,"[4]; seed treatment concentration 0.125 to 1 mg/g seed, day 23 after sowing",a stand establishment rate was increased
same,number of tillers per stock compared with the Blank slurry-treated section,[5],the number of tillers per stock was increased
same,"Relative growth rate (%) in test section of test substance to control section, Transformed cell TM182-CRE1","[6]; 30° C., 24 hours, turbidity OD 600",1.4%
same,Activity (%) of test substance for inhibiting intracellular signaling from plant-derived cytokinin receptor of cell,[6]; = 100 − relative growth rate of TM182-CRE1,98.6%
